Earlier results as cited in patent publication US20040247544A1, “Use of dialkyl sulphones in cosmetic nailcare compositions for promoting growth of the nails” (L'OREAL, priority 2002, published 2004).
Like-named read-outs stand apart in the source and are kept apart here.

Experiments:
nails [1] = conditions: oral ingestion, aqueous 5% solution, dogs
nails [2] = tested on: nails

## CS(C)(=O)=O [MSM, methylsulphonylmethane]
Nails [1]
  growth of the nails: promotes and stimulates the growth of the nails
Nails [2]; aqueous formulation containing 10% MSM and 50% water, applied to the nails with cotton wool, left to act for 15 minutes
  strength and brittleness of the nails: strong and less brittle
Nails [2]; nail-varnish removers: standard varnish solvent with 5 to 10% of MSM
  brittleness of the nails: less brittle
Nails [2]; solvent-based (ethyl acetate or amyl acetate) varnish containing 5% by weight of MSM
  brittleness of the nails: less brittle
